Assay results taken from the NIST ThermoML archive (doi:10.1021/je700261b).

Conditions: Liquid

CCCCO [butan-1-ol]
Conditions	mass density [kg/m3]
313.08 K, 1006 kPa	795.22
313.08 K, 2017 kPa	796.08
313.08 K, 3007 kPa	796.85
313.08 K, 4010 kPa	797.64
313.08 K, 5016 kPa	798.44
313.08 K, 6017 kPa	799.22
313.08 K, 7011 kPa	800
313.08 K, 8006 kPa	800.77
313.08 K, 9019 kPa	801.53
313.08 K, 10008 kPa	802.27
313.08 K, 11014 kPa	803.01
313.08 K, 12016 kPa	803.73
313.08 K, 13016 kPa	804.46
313.08 K, 14013 kPa	805.18
313.08 K, 15010 kPa	805.91
313.08 K, 16003 kPa	806.58
313.08 K, 16999 kPa	807.29
313.08 K, 17999 kPa	807.98
313.08 K, 19024 kPa	808.67
313.08 K, 20005 kPa	809.33
313.08 K, 21013 kPa	810.09
313.08 K, 22003 kPa	810.75
313.08 K, 23024 kPa	811.41
313.08 K, 24027 kPa	812.09
313.08 K, 24234 kPa	812.21
323.05 K, 999 kPa	787.38
323.05 K, 2026 kPa	788.22
323.05 K, 3007 kPa	789.03
323.05 K, 4024 kPa	789.91
323.05 K, 5012 kPa	790.75
323.05 K, 6016 kPa	791.57
323.05 K, 7023 kPa	792.4
323.05 K, 8004 kPa	793.16
323.05 K, 9009 kPa	793.98
323.05 K, 10007 kPa	794.78
323.05 K, 11004 kPa	795.57
323.05 K, 11995 kPa	796.32
323.05 K, 13007 kPa	797.09
323.05 K, 14022 kPa	797.85
323.05 K, 14989 kPa	798.63
323.05 K, 16006 kPa	799.33
323.05 K, 16998 kPa	800.1
323.05 K, 18001 kPa	800.84
323.05 K, 19025 kPa	801.56
323.05 K, 19993 kPa	802.28
323.05 K, 21032 kPa	803.06
323.05 K, 22006 kPa	803.74
323.05 K, 22993 kPa	804.41
323.05 K, 24012 kPa	805.16
323.05 K, 24418 kPa	805.43
332.93 K, 1013 kPa	779.33
332.93 K, 2026 kPa	780.27
332.93 K, 3014 kPa	781.21
332.93 K, 4006 kPa	782.04
332.93 K, 5000 kPa	782.91
332.93 K, 6013 kPa	783.78
332.93 K, 6997 kPa	784.6
332.93 K, 8003 kPa	785.5
332.93 K, 9005 kPa	786.32
332.93 K, 10001 kPa	787.17
332.93 K, 10996 kPa	787.97
332.93 K, 12003 kPa	788.8
332.93 K, 12993 kPa	789.62
332.93 K, 14001 kPa	790.38
332.93 K, 15016 kPa	791.22
332.93 K, 15998 kPa	791.96
332.93 K, 16999 kPa	792.72
332.93 K, 18009 kPa	793.53
332.93 K, 18986 kPa	794.29
332.93 K, 20043 kPa	795.08
332.93 K, 21056 kPa	795.87
332.93 K, 22040 kPa	796.59
332.93 K, 23009 kPa	797.3
332.93 K, 24001 kPa	798.04
332.93 K, 24515 kPa	798.46
342.86 K, 1026 kPa	770.92
342.86 K, 2007 kPa	771.87
342.86 K, 3003 kPa	772.85
342.86 K, 4051 kPa	773.84
342.86 K, 5008 kPa	774.72
342.86 K, 6023 kPa	775.59
342.86 K, 7010 kPa	776.55
342.86 K, 8000 kPa	777.42
342.86 K, 9001 kPa	778.28
342.86 K, 10005 kPa	779.2
342.86 K, 11006 kPa	780.06
342.86 K, 12010 kPa	780.9
342.86 K, 13033 kPa	781.77
342.86 K, 14017 kPa	782.62
342.86 K, 15001 kPa	783.45
342.86 K, 16009 kPa	784.29
342.86 K, 17016 kPa	785.14
342.86 K, 17991 kPa	785.93
342.86 K, 19023 kPa	786.79
342.86 K, 19999 kPa	787.57
342.86 K, 21000 kPa	788.37
342.86 K, 22003 kPa	789.15
342.86 K, 22989 kPa	789.91
342.86 K, 24004 kPa	790.69
342.86 K, 24621 kPa	791.2
352.79 K, 1020 kPa	762.66
352.79 K, 2014 kPa	763.68
352.79 K, 3007 kPa	764.68
352.79 K, 3998 kPa	765.67
352.79 K, 4998 kPa	766.69
352.79 K, 5997 kPa	767.68
352.79 K, 7006 kPa	768.64
352.79 K, 8005 kPa	769.61
352.79 K, 9007 kPa	770.53
352.79 K, 9997 kPa	771.44
352.79 K, 11008 kPa	772.38
352.79 K, 12000 kPa	773.26
352.79 K, 13043 kPa	774.22
352.79 K, 14002 kPa	775.11
352.79 K, 15000 kPa	775.98
352.79 K, 16000 kPa	776.85
352.79 K, 16992 kPa	777.72
352.79 K, 17988 kPa	778.56
352.79 K, 18994 kPa	779.41
352.79 K, 20012 kPa	780.22
352.79 K, 21003 kPa	781.04
352.79 K, 22010 kPa	781.87
352.79 K, 22971 kPa	782.68
352.79 K, 24021 kPa	783.49
352.79 K, 24573 kPa	783.95
362.67 K, 1043 kPa	753.5
362.67 K, 2116 kPa	754.77
362.67 K, 3026 kPa	755.74
362.67 K, 4013 kPa	756.82
362.67 K, 5024 kPa	757.87
362.67 K, 6047 kPa	758.93
362.67 K, 7014 kPa	759.93
362.67 K, 8012 kPa	760.98
362.67 K, 9025 kPa	762.03
362.67 K, 10015 kPa	762.94
362.67 K, 11002 kPa	763.92
362.67 K, 12002 kPa	764.89
362.67 K, 13011 kPa	765.86
362.67 K, 14011 kPa	766.84
362.67 K, 15014 kPa	767.7
362.67 K, 16006 kPa	768.67
362.67 K, 17009 kPa	769.58
362.67 K, 18008 kPa	770.48
362.67 K, 18993 kPa	771.37
362.67 K, 19990 kPa	772.21
362.67 K, 21007 kPa	773.1
362.67 K, 21997 kPa	773.96
362.67 K, 23014 kPa	774.89
362.67 K, 24000 kPa	775.58
362.67 K, 24563 kPa	776.12
